Laboratory results: patent publication US20100041089A1, “IMPROVED METHOD FOR DETECTING CHEMICAL […]” (priority 2006, published 2010)

System: yeast genes (expressed mRNA)
Assay: DNA chip measurement of expressed mRNA of yeast genes after culture with a toxic chemical substance
Format: cell-based, Saccharomyces cerevisiae S288C
Conditions: for level of expressed mRNA in the presence of chemical substance / level in the absence of chemical substance: cultured two hours with the chemical substance; for The level of expressed mRNA in the presence of chemical substance/The level of expressed mRNA in the absence of chemical substance: cultured two hours with substance
In short: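 Two-hour exposure of growing S. cerevisiae S288C (YPD, 25° C) to a sublethal toxicant preceded RNA isolation. Fluorescent cDNA was hybridized to a whole-genome array; a treated-to-untreated signal ratio of two or more was taken as significant.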

SMILES: CCCCCCCCCCCCc1ccc(S(=O)(=O)[O-])cc1.[Na+] [(17), Sodium dodecylbenzosulfonate]
- level of expressed mRNA in the presence of chemical substance / level in the absence of chemical substance (yeast gene YNL058C): 0.8
- level of expressed mRNA in the presence of chemical substance / level in the absence of chemical substance (yeast gene YNL063W): 0.9
- The level of expressed mRNA in the presence of chemical substance/The level of expressed mRNA in the absence of chemical substance (yeast gene YNL074C): 1.1
- The level of expressed mRNA in the presence of chemical substance/The level of expressed mRNA in the absence of chemical substance (yeast gene YNL092W): 1.7
- The level of expressed mRNA in the presence of chemical substance/The level of expressed mRNA in the absence of chemical substance (yeast gene YNL115C): 1.6
- The level of expressed mRNA in the presence of chemical substance/The level of expressed mRNA in the absence of chemical substance (yeast gene YNL156C): 1.8
- level of expressed mRNA in the presence of chemical substance / level in the absence of chemical substance (yeast gene YNL176C): 0.6
- level of expressed mRNA in the presence of chemical substance / level in the absence of chemical substance (yeast gene YNL194C): 0.8
- level of expressed mRNA in the presence of chemical substance / level in the absence of chemical substance (yeast gene YNL200C): 1.2
- The level of expressed mRNA in the presence of chemical substance/The level of expressed mRNA in the absence of chemical substance (yeast gene YNL234W): 1.0
- level of expressed mRNA in the presence of chemical substance / level in the absence of chemical substance (yeast gene YNL253W): 1.1
- level of expressed mRNA in the presence of chemical substance / level in the absence of chemical substance (yeast gene YNL276C): 1.1
- The level of expressed mRNA in the presence of chemical substance/The level of expressed mRNA in the absence of chemical substance (yeast gene YNL281W): 0.9
- The level of expressed mRNA in the presence of chemical substance/The level of expressed mRNA in the absence of chemical substance (yeast gene YNL305C): 1.7
- level of expressed mRNA in the presence of chemical substance / level in the absence of chemical substance (yeast gene YNR051C): 0.7
- The level of expressed mRNA in the presence of chemical substance/The level of expressed mRNA in the absence of chemical substance (yeast gene YNR068C): 1.0
- level of expressed mRNA in the presence of chemical substance / level in the absence of chemical substance (yeast gene YOL026C): 2.1
- The level of expressed mRNA in the presence of chemical substance/The level of expressed mRNA in the absence of chemical substance (yeast gene YOL032W): 1.7
- The level of expressed mRNA in the presence of chemical substance/The level of expressed mRNA in the absence of chemical substance (yeast gene YOL036W): 1.1
- The level of expressed mRNA in the presence of chemical substance/The level of expressed mRNA in the absence of chemical substance (yeast gene YOL047C): 1.5
- The level of expressed mRNA in the presence of chemical substance/The level of expressed mRNA in the absence of chemical substance (yeast gene YOL071W): 1.3
- The level of expressed mRNA in the presence of chemical substance/The level of expressed mRNA in the absence of chemical substance (yeast gene YOL082W): 1.6
- The level of expressed mRNA in the presence of chemical substance/The level of expressed mRNA in the absence of chemical substance (yeast gene YOL083W): 1.4
- The level of expressed mRNA in the presence of chemical substance/The level of expressed mRNA in the absence of chemical substance (yeast gene YOL117W): 1.3
- The level of expressed mRNA in the presence of chemical substance/The level of expressed mRNA in the absence of chemical substance (yeast gene YOL131W): 1.1
- The level of expressed mRNA in the presence of chemical substance/The level of expressed mRNA in the absence of chemical substance (yeast gene YOL150C): 2.7
- The level of expressed mRNA in the presence of chemical substance/The level of expressed mRNA in the absence of chemical substance (yeast gene YOL162W): 1.2
- The level of expressed mRNA in the presence of chemical substance/The level of expressed mRNA in the absence of chemical substance (yeast gene YOR019W): 1.7
- level of expressed mRNA in the presence of chemical substance / level in the absence of chemical substance (yeast gene YOR022C): 1.1
- level of expressed mRNA in the presence of chemical substance / level in the absence of chemical substance (yeast gene YOR087W): 0.8
- level of expressed mRNA in the presence of chemical substance / level in the absence of chemical substance (yeast gene YOR138C): 1.1
- The level of expressed mRNA in the presence of chemical substance/The level of expressed mRNA in the absence of chemical substance (yeast gene YOR197W): 1.5
- level of expressed mRNA in the presence of chemical substance / level in the absence of chemical substance (yeast gene YOR253W): 0.9
- level of expressed mRNA in the presence of chemical substance / level in the absence of chemical substance (yeast gene YOR267C): 1.3
- level of expressed mRNA in the presence of chemical substance / level in the absence of chemical substance (yeast gene YOR325W): 0.8
- level of expressed mRNA in the presence of chemical substance / level in the absence of chemical substance (yeast gene YPL005W): 1.2
- The level of expressed mRNA in the presence of chemical substance/The level of expressed mRNA in the absence of chemical substance (yeast gene YPL087W): 2.1
- level of expressed mRNA in the presence of chemical substance / level in the absence of chemical substance (yeast gene YPL150W): 1.4
- level of expressed mRNA in the presence of chemical substance / level in the absence of chemical substance (yeast gene YPL152W): 1.2
- level of expressed mRNA in the presence of chemical substance / level in the absence of chemical substance (yeast gene YPL168W): 1.1
- level of expressed mRNA in the presence of chemical substance / level in the absence of chemical substance (yeast gene YPL180W): 1.0
- level of expressed mRNA in the presence of chemical substance / level in the absence of chemical substance (yeast gene YPL188W): 0.7
- The level of expressed mRNA in the presence of chemical substance/The level of expressed mRNA in the absence of chemical substance (yeast gene YPL196W): 1.4
- The level of expressed mRNA in the presence of chemical substance/The level of expressed mRNA in the absence of chemical substance (yeast gene YPL206C): 1.4
- level of expressed mRNA in the presence of chemical substance / level in the absence of chemical substance (yeast gene YPL221W): 1.5
- The level of expressed mRNA in the presence of chemical substance/The level of expressed mRNA in the absence of chemical substance (yeast gene YPL222W): 1.1
- level of expressed mRNA in the presence of chemical substance / level in the absence of chemical substance (yeast gene YPL225W): 1.0
- The level of expressed mRNA in the presence of chemical substance/The level of expressed mRNA in the absence of chemical substance (yeast gene YPR023C): 1.0
- level of expressed mRNA in the presence of chemical substance / level in the absence of chemical substance (yeast gene YPR049C): 1.0
- level of expressed mRNA in the presence of chemical substance / level in the absence of chemical substance (yeast gene YPR146C): 1.0
- level of expressed mRNA in the presence of chemical substance / level in the absence of chemical substance (yeast gene YPR148C): 0.9
- The level of expressed mRNA in the presence of chemical substance/The level of expressed mRNA in the absence of chemical substance (yeast gene YPR151C): 1.3
- level of expressed mRNA in the presence of chemical substance / level in the absence of chemical substance (yeast gene YPR172W): 1.1
